Read-outs that look alike come from different tables or passages of the source.
Columns and labels:
MOLM14 cells = test: Proliferation assay (spheroid confluence, 8 days), MOLM14; assay type: cell-based, human; conditions: read-out: spheroid assay_MOLM14 IC50
Summary of the method: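 Absolute IC50 derived from spheroid confluence imaged on day 8, scaled between DMSO (0%) and a cytotoxic low control such as 1 μM staurosporin, fitted with variable slope, bounds fixed at 0 and 100%. Seeding 200 cells/well (300 for KO-52), ultra-low attachment plates, 0.3% DMSO, 37° C.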

KO-52 cells = test: Proliferation assay (spheroid confluence, 8 days), KO-52 control cell line; assay type: cell-based, human; conditions: read-out: spheroid assay_KO-52 IC50
Procedure: The anti-proliferative effect of menin/MLL protein/protein interaction inhibitor test compounds was assessed in human leukemia cell lines. The cell line MOLM14 harbors a MLL translocation and expresses the MLL fusion protein MLL-AF9, respectively, as well as the wildtype protein from the second allele. OCI-AML3 cells that carry the NPM1c gene mutation were also tested. […] KO-52 was used as a control cell line containing two MLL (KMT2A) wildtype alleles in order to exclude compounds that display general cytotoxic effects.
MOLM14 cells were cultured in RPMI-1640 (Sigma Aldrich) supplemented with 10% heat-inactivated fetal bovine serum (HyClone), 2 mM L-glutamine (Sigma Aldrich) and 50 μg/ml gentamycin (Gibco). KO-52 and OCI-AML3 cell lines were propagated in alpha-MEM (Sigma Aldrich) supplemented with 20% heat-inactivated fetal bovine serum (HyClone), 2 mM L-glutamine (Sigma Aldrich) and 50 μg/ml gentamycin (Gibco).
In order to assess the anti-proliferative effects, 200 MOLM14 cells, 200 OCI-AML3 cells or 300 KO-52 cells were seeded in 200 μl media per well in 96-well round bottom, ultra-low attachment plates (Costar, catalogue number 7007). Cell seeding numbers were chosen based on growth curves to ensure linear growth throughout the experiment. Test compounds were added at different concentrations and the DMSO content was normalized to 0.3%. Cells were incubated for 8 days at 37° C. and 5% CO2. Spheroid like growth was measured in real-time by live-cell imaging (IncuCyteZOOM, Essenbio, 4×objective) acquiring images at day 8. Confluence (%) as a measure of spheroid size was determined using an integrated analysis tool.
In order to determine the effect of the test compounds over time, the confluence in each well as a measure of spheroid size, was calculated. Confluence of the highest dose of a reference compound was used as baseline for the LC (Low control) and the confluence of DMSO treated cells was used as 0% cytotoxicity (High Control, HC).
Absolute IC50 values were calculated as percent change in confluence as follows:
LC=Low Control: cells treated with e.g. 1 μM of the cytotoxic agent staurosporin, or e.g. cells treated with a high concentration of an alternative reference compound
HC=High Control: Mean confluence (%) (DMSO treated cells)
% Effect=100−(100*(Sample−LC)/(HC−LC))
GraphPad Prism (version 7.00) was used to calculate the IC50. Dose-response equation was used for the plot of % Effect vs Log10 compound concentration with a variable slope and fixing the maximum to 100% and the minimum to 0%.

SMILES | IC50 (MOLM14 cells; Homo sapiens, MOLM-14, MOLM14) [nM] | IC50 (KO-52 cells; Homo sapiens) [nM] | IC50 (MOLM14 cells; MOLM14) [nM] | IC50 (KO-52 cells) [nM]
CC(=O)N1CCN(CCCC(C(C)C)N2CC[C@@H](Cc3cn(-c4ccc(F)cc4C(=O)N(C)C(C)C)c4cncc(C)c34)C2)CC1 (mixture of isomers) [Compound 8] | 11 | 2400 |  | 
CC(=O)N1CCN(CCCC(C(C)C)N2CC[C@H](Cc3cn(-c4ccc(F)cc4C(=O)N(C)C(C)C)c4cncc(C)c34)C2)CC1 (mixture of isomers) [Compound 9] | 13 | 5600 |  | 
CC(=O)N1C[C@@H]2CN([C@H]3C[C@@H](C(C(C)C)N4CC[C@H](Cc5cn(-c6ccc(F)cc6C(=O)N(C)C(C)C)c6cncc(C)c56)C4)C3)C[C@H]2C1 (mixture of isomers) [Compound 21] | < 1.8 | 2000 |  | 
CCC([C@H]1C[C@@H](N2CCN(C(C)=O)CC2)C1)N1CC[C@@H](Cc2cn(-c3ccc(F)cc3C(=O)N(C)C(C)C)c3cncc(C)c23)C1 (mixture of isomers) [Compound 24] | 13 | 8500 |  | 
Cc1cncc2c1c(C[C@@H]1CCN(CC3CCOCC3)C1)cn2-c1ccc(F)cc1S(=N)(=O)C(C)C (mixture of isomers) [Compound 78] | 111 | 8400 |  | 
Cc1cncc2c1c(C[C@@H]1CCN(CC3CCNC(=O)CC3)C1)cn2-c1ccc(F)cc1C(=O)N(C)C(C)C (mixture of isomers) [Compound 169] | 16 | 10000 |  | 
Cc1cncc2c1c(C[C@@H]1CCN(CC3CCNC(=O)C3)C1)cn2-c1ccc(F)cc1C(=O)N(C)C(C)C (mixture of isomers) [Compound 212] | 305 | > 15000 |  | 
COCCN(C)CCCC(C(C)C)N1CC[C@H](Cc2cn(-c3ccc(F)cc3C(=O)N(C)C(C)C)c3cncc(C)c23)C1 (single isomer, unassigned) [Compound 2] | 1 | > 15000 |  | 
COCCN(C)CCC[C@H](C(C)C)N1CC[C@H](Cc2cn(-c3ccc(F)cc3C(=O)N(C)C(C)C)c3cncc(Cl)c23)C1 (single isomer, unassigned) [Compound 4a] | 132 | 7800 |  | 
COCCN(C)CCC[C@@H](C(C)C)N1CC[C@H](Cc2cn(-c3ccc(F)cc3C(=O)N(C)C(C)C)c3cncc(Cl)c23)C1 (single isomer, unassigned) [Compound 4b] | 3 | 500 |  | 
CC(=O)N1CCN(CCCC(C(C)C)N2CCC(Cc3cn(-c4ccc(F)cc4C(=O)N(C)C(C)C)c4cncc(C)c34)C2)CC1 (single isomer, unassigned) [Compound 9a] | 2 | 600 |  | 
CC(=O)N1C[C@@H]2CN(CCC[C@H](C(C)C)N3CC[C@H](Cc4cn(-c5ccc(F)cc5C(=O)N(C)C(C)C)c5cncc(Cl)c45)C3)C[C@H]2C1 (single isomer, unassigned) [Compound 19a] | 3 | > 15000 |  | 
CN=S(=O)(c1cc(F)ccc1-n1cc(CC2CCN(CC3CCOCC3)C2)c2c(C)cncc21)C(C)C (single isomer, unassigned) [Compound 77d] |  |  | 197 | > 15000
CN=[S@](=O)(c1cc(F)ccc1-n1cc(C[C@@H]2CCN(CC3CCN(C(C)=O)CC3)C2)c2c(C)cncc21)C(C)C (single isomer, unassigned) [Compound 128a] | 676 | 7700 |  | 
COC[C@H](C1CCCCO1)N1CC[C@@H](Cc2cn(-c3ccc(F)cc3C(=O)N(C)C(C)C)c3cncc(C)c23)C1 (single isomer, unassigned) [Compound 165b] | 4 | 1900 |  | 
Cc1cncc2c1c(C[C@@H]1CCN([C@H](C)C3CCOCC3)C1)cn2-c1ccc(F)cc1[S@](=N)(=O)C(C)C (single isomer, unassigned) [Compound 180a] | 39 | 7200 |  | 
Cc1cncc2c1c(C[C@H]1CCN([C@H](C)C3CCOCC3)C1)cn2-c1ccc(F)cc1[S@](=N)(=O)C(C)C (single isomer, unassigned) [Compound 181a] | 44 | 4100 |  | 

SMILES | IC50 (MOLM14 cells; Homo sapiens, MOLM-14, MOLM14) [nM] | IC50 (KO-52 cells; Homo sapiens) [nM] | IC50 (MOLM14 cells; MOLM14) [nM] | IC50 (KO-52 cells) [nM]
Cc1cncc2c1c(C[C@@H]1CCN(C[C@H]3CCOC3)C1)cn2-c1ccc(F)cc1C(=O)N(C)C(C)C (single isomer, unassigned) [Compound 190a] | 40 | 10000 |  | 
Cc1cncc2c1c(C[C@@H]1CCN(C[C@@H]3CCOC3)C1)cn2-c1ccc(F)cc1C(=O)N(C)C(C)C (single isomer, unassigned) [Compound 190b] | 46 | 4900 |  | 
Cc1cncc2c1c(CC1CN(C[C@H]3CCOC3)C1)cn2-c1ccc(F)cc1C(=O)N(C)C(C)C (single isomer, unassigned) [Compound 191a] | 7 | 4600 |  | 
Cc1cncc2c1c(CC1CN(C[C@@H]3CCOC3)C1)cn2-c1ccc(F)cc1C(=O)N(C)C(C)C (single isomer, unassigned) [Compound 191b] | 33 | 7000 |  | 
Cc1cncc2c1c(C[C@@H]1CCN(CC3CCC(O)CC3)C1)cn2-c1ccc(F)cc1C(=O)N(C)C(C)C (single isomer, unassigned) [Compound 205a] | 23 |  |  | 7000
Cc1cncc2c1c(C[C@@H]1CCN(CC3CCC(O)CC3)C1)cn2-c1ccc(F)cc1C(=O)N(C)C(C)C (single isomer, unassigned) [Compound 205b] |  |  | 25 | 3200
CC(=O)N1CCC([C@H](CO)N2CC[C@@H](Cc3cn(-c4ccc(F)cc4C(=O)N(C)C(C)C)c4cncc(C)c34)C2)CC1 (single isomer, unassigned) [Compound 206a] | 13 | 6600 |  | 
CC(=O)N1CCC(CN2CC[C@@H](Cc3cn(-c4ccc(F)cc4C(=O)N4CCC5CC54)c4cncc(C)c34)C2)CC1 (single isomer, unassigned) [Compound 311a] | 18 | 7700 |  | 
CC(=O)N1CCC(CN2CC[C@@H](Cc3cn(-c4ccc(F)cc4C(=O)N4CCC5CC54)c4cncc(C)c34)C2)CC1 (single isomer, unassigned) [Compound 311b] |  |  | 35 | > 15000
COCCN(C)CCCC(C(C)C)N1CC[C@@H](Cc2cn(-c3ccc(F)cc3C(=O)N(C)C(C)C)c3cncc(Cl)c23)C1 (stereo partly drawn) [Compound 3] | 4 | 1100 |  | 
COCCN(C)CCCC(C(C)C)N1CC[C@H](Cc2cn(-c3ccc(F)cc3C(=O)N(C)C(C)C)c3cncc(Cl)c23)C1 (stereo partly drawn) [Compound 4] | 5 | 3000 |  | 
COCCN(C)CCCC(C(C)C)N1CCC(Cc2cn(-c3ccc(F)cc3C(=O)N(C)C(C)C)c3cncc(F)c23)C1 (stereo not drawn) [Compound 6] | 34 | 1500 |  | 
CNC(=O)[C@H]1CC[C@H](CN2CC(Cc3cn(-c4ccc(F)cc4C(=O)N(C)C(C)C)c4cncc(C)c34)C2)CC1 [Compound 74] | 4 | 5200 |  | 
CNC(=O)c1cncc(N2CCC(N3CC(Cc4cn(-c5ccc(F)cc5C(=O)N(C)C(C)C)c5cncc(C)c45)C3)CC2)n1 [Compound 75] | 9 | 2000 |  | 
CN=S(=O)(c1cc(F)ccc1-n1cc(CC2CCN(CC3CCOCC3)C2)c2c(C)cncc21)C(C)C (stereo not drawn) [Compound 77] | 90 | 5800 |  | 
Cc1cncc2c1c(CC1CN(CC3CCNC(=O)CC3)C1)cn2-c1ccc(F)cc1C(=O)N(C)C(C)C (stereo not drawn) [Compound 104] | 275 | > 15000 |  | 

Reference: patent US20230250096A1, “SUBSTITUTED PHENYL-1H-PYRROLO[2,3-c] PYRIDINE DERIVATIVES” (Janssen Pharmaceutica NV, priority 2021, published 2023)
